{
  "source": "PubChem BioAssay AID1259411",
  "about": "(Chemical Carcinogenesis Research Information System (CCRIS), 2018)",
  "system": "rodent carcinogenicity bioassays, tumor incidence",
  "assay": "CCRIS carcinogenicity studies",
  "conditions": "Dose: 0",
  "method_in_brief": "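NCI-built, expert-reviewed records of carcinogenicity and related test outcomes (mutagenicity, tumor promotion/inhibition) compiled from published and report sources, historical span 1985-2011, not updated.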",
  "note": "Active and inactive are the calls of the source. The rule behind the calls is not given here.",
  "data": [
    {"smiles": "Oc1ccc2c(c1)OCO2", "values": [
      {"measurement": "carcinogen call", "setting": "Species: MOUSE, Strain/Sex: B6C3F1/FEMALE, Route: ORAL, 2% IN DIET FOR 96 WK (STUDY DURATION: 96 WK), Tumor Site: Type of Lesion: FORESTOMACH: SQUAMOUS CELL CARCINOMA", "value": "active; positive"},
      {"measurement": "carcinogen call", "setting": "Species: MOUSE, Strain/Sex: B6C3F1/FEMALE, Route: ORAL, 2% IN POWDERED BASAL DIET FOR 96 WK (STUDY DURATION: 96 WK), Tumor Site: Type of Lesion: FORESTOMACH: SQUAMOUS CELL CARCINOMA", "value": "active; positive"},
      {"measurement": "carcinogen call", "setting": "Species: MOUSE, Strain/Sex: B6C3F1/MALE, Route: ORAL, 2% IN DIET FOR 96 WK (STUDY DURATION: 96 WK), Tumor Site: Type of Lesion: FORESTOMACH: SQUAMOUS CELL CARCINOMA", "value": "active; positive"},
      {"measurement": "carcinogen call", "setting": "Species: MOUSE, Strain/Sex: B6C3F1/MALE, Route: ORAL, 2% IN POWDERED BASAL DIET FOR 96 WK (STUDY DURATION: 96 WK), Tumor Site: Type of Lesion: FORESTOMACH: SQUAMOUS CELL CARCINOMA", "value": "active; positive"},
      {"measurement": "carcinogen call", "setting": "Species: RAT, Strain/Sex: F344/FEMALE, Route: ORAL, 2% IN DIET FOR 104 WK (STUDY DURATION: 104 WK)", "value": "inactive; negative"},
      {"measurement": "carcinogen call", "setting": "Species: RAT, Strain/Sex: F344/FEMALE, Route: ORAL, 2% IN DIET FOR 104 WK (STUDY DURATION: 104 WK), Tumor Site: Type of Lesion: FORESTOMACH: PAPILLOMA", "value": "active; positive"},
      {"measurement": "carcinogen call", "setting": "Species: RAT, Strain/Sex: F344/FEMALE, Route: ORAL, 2% IN POWDERED BASAL DIET FOR 104 WK (STUDY DURATION: 104 WK), Tumor Site: Type of Lesion: FORESTOMACH: PAPILLOMA", "value": "active; positive"},
      {"measurement": "carcinogen call", "setting": "Species: RAT, Strain/Sex: F344/MALE, Route: ORAL, 0.4% IN DIET FOR DURATION OF STUDY (STUDY DURATION: 104 WK)", "value": "inactive; negative"},
      {"measurement": "carcinogen call", "setting": "Species: RAT, Strain/Sex: F344/MALE, Route: ORAL, 2% IN DIET FOR 104 WK (STUDY DURATION: 104 WK), Tumor Site: Type of Lesion: FORESTOMACH: PAPILLOMA, SQUAMOUS CELL CARCINOMA", "value": "active; positive"},
      {"measurement": "carcinogen call", "setting": "Species: RAT, Strain/Sex: F344/MALE, Route: ORAL, 2% IN DIET FOR 104 WK (STUDY DURATION: 104 WK), Tumor Site: Type of Lesion: FORESTOMACH: SQUAMOUS CELL CARCINOMA", "value": "active; positive"},
      {"measurement": "carcinogen call", "setting": "Species: RAT, Strain/Sex: F344/MALE, Route: ORAL, 2% IN POWDERED BASAL DIET FOR 104 WK (STUDY DURATION: 104 WK), Tumor Site: Type of Lesion: FORESTOMACH: PAPILLOMA, SQUAMOUS CELL CARCINOMA", "value": "active; positive"}
    ]},
    {"smiles": "CC1CN(N=O)C(=O)O1", "note": "(stereo unspecified)", "values": [
      {"measurement": "carcinogen call", "setting": "Species: HAMSTER, Strain/Sex: SYRIAN/FEMALE, Route: GAVAGE, 14 MG/ML ((0.2 ML OF A SOLUTION IN ETHYL ACETATE/CORN OIL (1:2)) 1/WK FOR 28 WK (STUDY DURATION: LIFE SPAN), Tumor Site: Type of Lesion: FORESTOMACH: SQUAMOUS CELL CARCINOMA OR PAPILLOMA", "value": "active; positive"}
    ]},
    {"smiles": "CCC1CO1", "note": "(stereo unspecified)", "values": [
      {"measurement": "carcinogen call", "setting": "Species: MOUSE, Strain/Sex: B6C3F1/FEMALE, Route: INHALATION, 50, 100 PPM 6 HR/D 5D/WK FOR 102 WK (STUDY DURATION: 103 WK), 50, 100 PPM 6 HR/D 5D/WK FOR 102 WK (STUDY DURATION: 103 WK)", "value": "inactive; negative"},
      {"measurement": "carcinogen call", "setting": "Species: MOUSE, Strain/Sex: B6C3F1/MALE, Route: INHALATION, 50, 100 PPM 6 HR/D 5D/WK FOR 102 WK (STUDY DURATION: 103 WK), 50, 100 PPM 6 HR/D 5D/WK FOR 102 WK (STUDY DURATION: 103 WK)", "value": "inactive; negative"},
      {"measurement": "carcinogen call", "setting": "Species: RAT, Strain/Sex: F344/FEMALE, Route: INHALATION, 200, 400 PPM 6 HR/D 5 D/WK FOR 103 WK (STUDY DURATION: 104 WK), 200, 400 PPM 6 HR/D 5 D/WK FOR 103 WK (STUDY DURATION: 104 WK), Tumor Site: Type of Lesion: NASAL CAVITY: PAPILLARY ADENOMA", "value": "equivocal"},
      {"measurement": "carcinogen call", "setting": "Species: RAT, Strain/Sex: F344/MALE, Route: INHALATION, 200, 400 PPM 6 HR/D 5D/WK FOR 103 WK (STUDY DURATION: 104 WK), 200, 400 PPM 6 HR/D 5D/WK FOR 103 WK (STUDY DURATION: 104 WK), Tumor Site: Type of Lesion: NASAL CAVITY: PAPILLARY ADENOMA, LUNG: ALVEOLAR/BRONCHIOLAR CARCINOMA, LUNG: ALVEOLAR/BRONCHIOLAR ADENOMA OR CARCINOMA, Tumor Site: Type of Lesion: NASAL CAVITY: PAPILLARY ADENOMA, LUNG: ALVEOLAR/BRONCHIOLAR CARCINOMA, LUNG: ALVEOLAR/BRONCHIOLAR ADENOMA OR CARCINOMA", "value": "active; positive"}
    ]},
    {"smiles": "CC1CN(N=O)CC(C)N1C", "note": "(stereo unspecified)", "values": [
      {"measurement": "carcinogen call", "setting": "Species: RAT, Strain/Sex: F344/FEMALE, Route: ORAL, 110 MG/L IN DRINKING WATER 5 D/WK FOR 26 WK, STUDY DURATION: 40-50 WK, 110 MG/L IN DRINKING WATER 5 D/WK FOR 26 WK, STUDY DURATION: 40-50 WK, Tumor Site: Type of Lesion: THYMUS GLAND: LYMPHOMA OR LEUKEMIA, MULTIPLE SITES: LYMPHOMA OR LEUKEMIA, NASAL CAVITY: CARCINOMA, Tumor Site: Type of Lesion: THYMUS GLAND: LYMPHOMA OR LEUKEMIA, MULTIPLE SITES: LYMPHOMA OR LEUKEMIA, NASAL CAVITY: CARCINOMA", "value": "active; positive"}
    ]},
    {"smiles": "CCCCCCCC/C=C/CCCCCCCC(=O)OCCOCC(OCCO)C1OCC(OCCO)C1OCCO", "note": "(stereo unspecified)", "values": [
      {"measurement": "carcinogen call", "setting": "Species: MOUSE, Strain/Sex: B6C3F1/FEMALE, Route: ORAL, 25000, 50000 PPM IN FEED 7 D/WK FOR 103 WK (STUDY DURATION: 103 WK), 25000, 50000 PPM IN FEED 7 D/WK FOR 103 WK (STUDY DURATION: 103 WK)", "value": "inactive; negative"},
      {"measurement": "carcinogen call", "setting": "Species: MOUSE, Strain/Sex: B6C3F1/MALE, Route: ORAL, 25000, 50000 PPM IN FEED 7 D/WK FOR 103 WK (STUDY DURATION: 103 WK), 25000, 50000 PPM IN FEED 7 D/WK FOR 103 WK (STUDY DURATION: 103 WK)", "value": "inactive; negative"},
      {"measurement": "carcinogen call", "setting": "Species: RAT, Strain/Sex: F344/FEMALE, Route: ORAL, 25000, 50000 PPM IN FEED 7 D/WK FOR 103 WK (STUDY DURATION: 103 WK), 25000, 50000 PPM IN FEED 7 D/WK FOR 103 WK (STUDY DURATION: 103 WK)", "value": "inactive; negative"},
      {"measurement": "carcinogen call", "setting": "Species: RAT, Strain/Sex: F344/MALE, Route: ORAL, 25000, 50000 PPM IN FEED 7 D/WK FOR 103 WK (STUDY DURATION: 103 WK), 25000, 50000 PPM IN FEED 7 D/WK FOR 103 WK (STUDY DURATION: 103 WK), Tumor Site: Type of Lesion: ADRENAL MEDULLA: PHEOCHROMOCYTOMA", "value": "equivocal"}
    ]},
    {"smiles": "C=CSCCC(N)C(=O)O", "note": "(stereo unspecified)", "values": [
      {"measurement": "carcinogen call", "setting": "Species: RAT, Strain/Sex: F344/MALE, Route: INTRAPERITONEAL, 50-100 MG/KG 5 D/WK FOR 12 WK, STUDY DURATION: 25 MO, 50-100 MG/KG 5 D/WK FOR 12 WK, STUDY DURATION: 25 MO, Tumor Site: Type of Lesion: LIVER: HEPATOCELLULAR CARCINOMA", "value": "active; positive"},
      {"measurement": "carcinogen call", "setting": "Species: RAT, Strain/Sex: F344/MALE, Route: ORAL, 0.05% IN METHYL-DEFICIENT DIET FOR 20 MO, Tumor Site: Type of Lesion: LIVER: HEPATOCELLULAR CARCINOMA", "value": "active; positive"}
    ]},
    {"smiles": "CN1C(=O)C(O)N=C(c2ccccc2)c2cc(Cl)ccc21", "note": "(stereo unspecified)", "values": [
      {"measurement": "carcinogen call", "setting": "Species: MOUSE, Strain/Sex: CD-1/FEMALE, Route: ORAL, 10, 80, 160 MG/KG/D IN DIET FOR 18 MO (STUDY DURATION: 18 MO), 10, 80, 160 MG/KG/D IN DIET FOR 18 MO (STUDY DURATION: 18 MO)", "value": "inactive; negative"},
      {"measurement": "carcinogen call", "setting": "Species: MOUSE, Strain/Sex: CD-1/MALE, Route: ORAL, 10, 80, 160 MG/KG/D IN DIET FOR 18 MO (STUDY DURATION: 18 MO), 10, 80, 160 MG/KG/D IN DIET FOR 18 MO (STUDY DURATION: 18 MO)", "value": "inactive; negative"},
      {"measurement": "carcinogen call", "setting": "Species: RAT, Strain/Sex: STRAIN-CD/FEMALE, Route: ORAL, 10, 40, 160 MG/KG/D IN DIET FOR 2 YR (STUDY DURATION: 2 YR), 10, 40, 160 MG/KG/D IN DIET FOR 2 YR (STUDY DURATION: 2 YR)", "value": "inactive; negative"},
      {"measurement": "carcinogen call", "setting": "Species: RAT, Strain/Sex: STRAIN-CD/MALE, Route: ORAL, 10, 40, 160 MG/KG/D IN DIET FOR 2 YR (STUDY DURATION: 2 YR), 10, 40, 160 MG/KG/D IN DIET FOR 2 YR (STUDY DURATION: 2 YR)", "value": "inactive; negative"}
    ]},
    {"smiles": "CCCCCC[C@@H](O)C/C=C\\CCCCCCCC(=O)O", "note": "(tested in a mixture with another compound)", "values": [
      {"measurement": "carcinogen call", "setting": "Species: MOUSE, Strain/Sex: C57BL/FEMALE, Route: ORAL, 5% IN DIET FOR 80 WKS (STUDY DURATION: 80 WKS)", "value": "inactive; negative"},
      {"measurement": "carcinogen call", "setting": "Species: MOUSE, Strain/Sex: C57BL/MALE, Route: ORAL, 5% IN DIET FOR 80 WKS (study duration: 80 WKS)", "value": "inactive; negative"},
      {"measurement": "carcinogen call", "setting": "Species: RAT, Strain/Sex: WISTAR/FEMALE, Route: ORAL, 5% IN DIET FOR 2 YR (STUDY DURATION: 2 YR)", "value": "inactive; negative"},
      {"measurement": "carcinogen call", "setting": "Species: RAT, Strain/Sex: WISTAR/MALE, Route: ORAL, 5% IN DIET FOR 2 YR (STUDY DURATION: 2 YEARS)", "value": "inactive; negative"}
    ]}
  ]
}
